The term Kd denotes a measure of binding affinity in units of concentration. Read a low Kd as higher affinity.

The values below come from article PMC5559104, “Heat shock protein 90 localizes to the surface and augments virulence factors of Cryptococcus neoformans” (PLoS Neglected Tropical Diseases, 2017).

Assay [1] addresses T1, CnHsp90 (heat shock protein 90) (Cryptococcus neoformans, UniProt J9VVA4).
T1 construct: gene CNAG_06150; recombinant CnHsp90 6x-His tag fusion protein (2157 bp amplified product in pRSET-A)
As to the kind of experiment: intrinsic tryptophan fluorescence quenching; also inhibits ATPase activity of the purified protein (IC50 […] at […]°C, […] at […]°C). The format is binding.

In assay [2] the target is T1, CnHsp90 (heat shock protein 90). As to the kind of experiment: intrinsic tryptophan fluorescence quenching; also hydrolysis of γ-32P-ATP (Km […] at […]°C, […] at […]°C). The format is binding.

T1 sequence (J9VVA4 entry or part of it): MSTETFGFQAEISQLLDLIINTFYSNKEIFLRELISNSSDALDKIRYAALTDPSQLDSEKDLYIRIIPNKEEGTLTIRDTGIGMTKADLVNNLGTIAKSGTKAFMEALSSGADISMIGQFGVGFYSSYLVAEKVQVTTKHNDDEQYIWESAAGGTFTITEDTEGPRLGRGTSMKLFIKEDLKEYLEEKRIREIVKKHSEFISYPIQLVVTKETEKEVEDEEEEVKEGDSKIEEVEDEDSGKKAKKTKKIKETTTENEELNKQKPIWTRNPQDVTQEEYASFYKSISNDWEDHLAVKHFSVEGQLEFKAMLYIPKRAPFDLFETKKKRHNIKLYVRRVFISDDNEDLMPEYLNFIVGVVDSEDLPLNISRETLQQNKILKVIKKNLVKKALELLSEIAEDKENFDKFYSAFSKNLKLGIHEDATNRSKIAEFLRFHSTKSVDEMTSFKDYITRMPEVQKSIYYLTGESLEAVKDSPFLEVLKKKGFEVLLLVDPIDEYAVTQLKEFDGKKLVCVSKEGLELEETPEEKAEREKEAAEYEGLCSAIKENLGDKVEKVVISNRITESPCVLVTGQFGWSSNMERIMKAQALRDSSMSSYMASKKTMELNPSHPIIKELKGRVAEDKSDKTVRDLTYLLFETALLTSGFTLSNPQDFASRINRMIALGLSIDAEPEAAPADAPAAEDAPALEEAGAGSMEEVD

Turning to `C=CCNC1=C2C[C@@H](C)C[C@H](OC)[C@H](O)[C@@H](C)/C=C(\C)[C@H](OC(N)=O)[C@@H](OC)/C=C\C=C(/C)C(=O)NC(=CC1=O)C2=O` [17-AAG], the Kd in assay [1] came to 12.9 µM.
Regarding `Nc1ncnc2c1ncn2[C@@H]1O[C@H](COP(=O)(O)OP(=O)(O)OP(=O)(O)O)[C@@H](O)[C@H]1O` [ATP], the Kd in assay [2] turned out to be 497 µM.
